This note sets out measurements from patent US20080235828A1 (University of Manitoba, priority 2004, published 2008).

For one test, the system named is GST:FCA-WW-FY. Kind of test: ABA binding to and dissociation of pre-formed FCA-FY complex. Also noted: species or system Arabidopsis. Here is the method: (§1) The GST:FCA-WW-FY interaction mixture was incubated for 90 minutes before 1 μM ^3H^+-ABA was added and the mixture pelletted, washed, and the dual activity for [^35S]-met-FY and ^3H^+-ABA were counted as described above.

The test system of a further test is FCA/FY interaction. Kind of test: GST pull-down of FCA/FY interaction in the presence of ABA. The class given is binding, Arabidopsis. Here is the method:
All in vitro translation and GST pull-down assays were carried out as described by supplier's protocols (Promega, Madison, Wis.) with modifications^S and as follows. For GST in vitro pull-down assays, 15 μL GST affinity resin was incubated with 250 μL FCA clear lysate, pelleted and the complex blocked and washed with IP buffer as described^S. For the determination of the amount of FCA bound to GST resin, the pellet was resuspended with 200 μL of 15 mM GSH to elute FCA and the supernatant was recovered by centrifugation. FY protein to be tested for interaction with the GST-FCA fusion protein was synthesized from a plasmid template and labeled with [^35S]-methionine using the T7 TNT coupled Transcription/Translation System (Promega). Twenty μL of FY labeled protein and 180 μL of interaction buffer (12.5 mM Tris-HCl, pH 7.3 containing 5 mM KCl, 1 mM MgCl2, and 100 mM NaCl) were used to resuspend the GST:FCA after the final wash. The protein binding/interaction reaction was carried out for 90 minutes at 4° C. with continuous gentle mixing. The newly formed complex was then washed three times with 500 μL of IP wash buffer. After the final wash, the complex was resuspended, first with 10 μL of 1 5 mM GSH to facilitate the dissociation of interacted proteins from GST resin and then 10 μL of 2×SDS-PAGE sample buffer was added to the mixture and boiled for 5 minutes for complete elution of the proteins from the agarose beads. The beads were pelleted by centrifugation and supernatant was loaded on a 12% SDS-PAGE gel. The gel was dried and exposed to Kodak X-ray film for 18 hours at −70° C. and film was developed for the detection of labelled proteins.
FCA was bound with […] for 30 minutes at which time the FCA/FY translated product was added to the incubation mixture. The interaction between FCA/FY was carried out in the presence of either (−)- or (+)-ABA in binding buffer as described above. Released proteins were separated on SDS-PAGE and labelled proteins were detected as described above. FCA-WW-FY was used as a control.

Another test has as its target T1, FCA-WF protein (Arabidopsis thaliana, UniProt O04425, W619F).
T1 sequence (O04425 1-747 W619F): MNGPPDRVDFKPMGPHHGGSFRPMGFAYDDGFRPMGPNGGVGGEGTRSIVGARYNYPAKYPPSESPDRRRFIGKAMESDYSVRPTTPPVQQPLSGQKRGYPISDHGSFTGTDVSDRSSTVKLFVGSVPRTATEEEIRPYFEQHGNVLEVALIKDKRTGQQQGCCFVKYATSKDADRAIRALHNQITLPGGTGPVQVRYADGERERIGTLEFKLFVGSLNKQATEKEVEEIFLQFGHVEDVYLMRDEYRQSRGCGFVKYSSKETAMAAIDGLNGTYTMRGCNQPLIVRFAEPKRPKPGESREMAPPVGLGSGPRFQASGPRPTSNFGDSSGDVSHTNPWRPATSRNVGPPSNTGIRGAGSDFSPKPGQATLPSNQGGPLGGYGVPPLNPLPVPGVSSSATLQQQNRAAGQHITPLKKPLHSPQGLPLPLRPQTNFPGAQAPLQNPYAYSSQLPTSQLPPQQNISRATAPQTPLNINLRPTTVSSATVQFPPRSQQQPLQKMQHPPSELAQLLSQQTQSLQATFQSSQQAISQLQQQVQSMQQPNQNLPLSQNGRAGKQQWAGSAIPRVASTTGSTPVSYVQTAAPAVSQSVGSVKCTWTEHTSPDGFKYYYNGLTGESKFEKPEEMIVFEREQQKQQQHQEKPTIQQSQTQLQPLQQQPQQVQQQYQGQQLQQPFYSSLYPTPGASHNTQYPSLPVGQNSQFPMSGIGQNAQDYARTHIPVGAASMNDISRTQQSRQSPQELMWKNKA
Briefly: ABA binding assay with FCA-WF (mutated WW domain). To be noted: mutation in the second W of WW domain. Here is the method:
as §1
Similarly, FCA-WF protein was used and binding assays were carried out as above. […] The FCA ^3H^+-ABA binding activity in the absence of FY reached approximately 50% saturation at 15 minutes and approximately 95% saturation at 45 minutes. Each data point represents triplicate assays and error bars represent standard deviation.

GST:FCA-WW-FY, sequence (O04425 591-747 limits assumed): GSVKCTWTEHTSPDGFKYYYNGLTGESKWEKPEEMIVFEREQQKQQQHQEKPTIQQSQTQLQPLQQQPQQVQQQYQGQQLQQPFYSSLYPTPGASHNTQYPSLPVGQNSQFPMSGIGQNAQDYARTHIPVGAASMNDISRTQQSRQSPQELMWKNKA

Turning to abscisic acid [ABA], the “disruption of FCA-FY complex (displacement of FY)” value with GST:FCA-WW-FY is “capable of disrupting the FCA-FY complex”. In the test with GST:FCA-WW-FY (1 μM 3H+-ABA added after 90 min FCA-FY incubation), the “ABA binding activity of pre-formed FCA-FY complex” value was “initially low but significantly increased after 45 minutes”. In the test with FCA/FY interaction (FCA pre-bound with ABA for 30 min), the “inhibition of FCA/FY interaction” value is “significantly inhibited”. Also, in the test on FCA/FY interaction (at 1 μM ABA), the FCA/FY interaction remaining entry is “virtually no significant interaction”. Besides, the “3H+-ABA binding ratio relative to non-mutated FCA-WW protein” value at FCA-WF protein was “virtually a similar ratio”.
